{"source": "patent US20150126573A1", "about": "“METHODS AND PHARMACEUTICAL COMPOSITIONS FOR PREVENTION OR TREATMENT OF CHRONIC OBSTRUCTIVE PULMONARY DISEASE” (INSERM (INSTITUT NATIONAL DE LA SANTE ET DE LA RECHERCHE …, priority 2012, published 2015)", "key": {"Primary lung fibroblasts": {"test_system": "Primary lung fibroblasts", "test": "Single 24 h exposure of non-senescent lung fibroblasts to PGE2 (accelerated senescence and related inflammation)", "type": "cell-based, human", "details": "for PGE2-induced SA-β gal and p21 expression: control fibroblasts (NS-C and S-C), antagonists 10 μM; for increase in IL-6, CX3CL1, FGF2, VEGF, MMP2 and TIMP2 induced by PGE2: fibroblasts, EP2 and EP4 antagonists", "text": "Primary lung fibroblasts were isolated by the explant technique (Normand J and Karasek M A. In Vitro Cell Dev Biol Anim 1995; 31:447-455) from lung specimens obtained for lung tumor resection from 25 patients with COPD and 35 subjects without clinical, morphological or functional signs of COPD (controls) (Table 1). Controls were divided into non-smoker and smoker groups (NS-C, n=10 and S-C, n=25 respectively). Smoking status (current smokers or ex-smokers, defined by smoking cessation after more than 1 year (Lapperre T S et al., Respir Res 2007; 8:85; Savale L et al. Am J Respir Crit Care Med 2009), was considered in the analysis of the different results (Table 2). Classification of COPD severity was based on the 2003 Global initiative for chronic obstructive lung disease (GOLD) criteria (Rabe K F et al., Am J Respir Crit Care Med 2007; 176:532-555). Informed consent was obtained from all patients and the study was approved by the “Comite de Protection des Personnes Ile de France IX”.\n(§1) Fibroblasts were exposed to either PGE2 (0.5 to 50 ng ml^−1) or conditioned medium (CM) collected from fibroblasts incubated for 24 h. In different experiments cells were treated with inhibitors of COXs, agonists or antagonists of prostaglandin receptors EP2 and EP4, the antioxidant N-acetylcysteine (NAC), or the inhibitor of p53 transcriptional effects pifithriñ-α.\n(§2) Senescence was characterized by measuring cumulative population doubling levels (PDLs) (Holz O et al., Eur Respir J 2004; 24:575-579), telomere length (Savale L et al., Am J Respir Crit Care Med 2009), senescence associated β-galactosidase activity (SA β-Gal) (Dimri G P. Cancer Cell 2005; 7:505-512), and the expression of phospho (serine 15)-p53 p16, p21, and caspase 3 by western blot, immunofluorecence and RT-qPCR analysis. The level of 29 soluble factors in conditioned medium was quantified using the Luminex technology (Millipore, Molscheim, France)."}, "fibroblasts": {"test_system": "fibroblasts", "test": "Cellular reactive oxygen species production (DCFH-DA assay) and oxidant signalling in PGE2-exposed fibroblasts", "type": "cell-based, human", "details": "for increase in ROS, and SA β-gal and p21 expression induced by PGE2: 24 h pre-treatment of fibroblasts", "protocol": "as §1\n(§3) PGE2 was quantified by using the Prostaglandin E2 monoclonal EIA kit (Bertin Pharma, Montigny le Bretonneux, France). PGE2 receptors and enzymes involved in PGE2 synthesis were quantified by RT-qPCR. Cellular reactive oxygen species production was quantified by the DCFH-DA assay (Carter W et al., J Leukoc Biol 1994; 55:253-258)."}, "[1]": {"test_system": "lung mRNA expression of senescence markers and cytokines", "test": "Intratracheal instillation of PGE2 in mice, lung mRNA expression of senescence markers and cytokines", "type": "in vivo", "protocol": "Male 8-week-old mice of C57BL/6 background and p53−/− animals (kindly provided by Tyler Jacks, MIT, Cambridge) were intratracheally instilled with either PGE2 (1 ng·ml^−1) or vehicle (DMSO 1/10000). Instilled volume was 50 μl. Twenty-four and 48 h after instillation mice were sacrificed and analysis of lung mRNA expression of senescence markers and cytokines were performed. Studies were conducted in compliance with INSERM guidelines regarding the fair treatment of animals."}, "PGE2": {"test_system": "PGE2", "test": "PGE2 quantification in fibroblast culture/conditioned medium (Prostaglandin E2 monoclonal EIA kit)", "type": "cell-based, human", "details": "for reduction of the levels of PGE2 in CM: treatment of fibroblasts with COX inhibitors", "protocol": "as §1, §3"}, "S-C and COPD fibroblasts": {"test_system": "S-C and COPD fibroblasts", "test": "Replicative senescence of S-C and COPD fibroblasts during successive passages (repeated PGE2 exposure or COX inhibitors)", "type": "cell-based, human", "protocol": "as §1, §2\nFinally, the inventors investigated if endogenous PGE2 was involved in replicative senescence."}, "human dermal fibroblasts": {"test_system": "human dermal fibroblasts", "details": "Yang H H et al., Biogerontology 2011; cited from earlier work"}, "[2]": {"test_system": "Non-senescent fibroblasts from S-C and COPD patients (target fibroblasts)", "test": "Paracrine senescence: target fibroblasts incubated 24 h with conditioned medium (CM) from senescent fibroblasts", "type": "cell-based, human", "protocol": "as §1, §2\nNon-senescent fibroblasts from S-C and COPD patients (further called target fibroblasts) were incubated 24 h with conditioned medium (CM) from cells of the respective groups obtained at non-senescent and senescent passages. […] Both S-C and COPD CM obtained at senescent passage increased the percentage SA-β gal, phospho (serine 15)-p53, p21, and p16 protein expression, as well as IL-6, IL-8, MCP-1 and FGF-2 mRNA expression in target cells."}, "[3]": {"details": "COPD fibroblasts, both antagonists (EP2 + EP4) used simultaneously, versus one antagonist"}, "[4]": {"details": "COPD fibroblasts, one antagonist alone (10 μM), PGE2 10 ng·ml−1"}, "[5]": {"details": "wild type mice, single intra-tracheal instillation"}, "[6]": {"details": "repeated exposures to PGE2 at 1 ng·ml−1, passage 3 to 9"}, "[7]": {"details": "repeated exposures to PGE2 at 1 ng·ml−1, passage 3 to 9, S-C and COPD fibroblasts, greater in COPD"}, "[8]": {"details": "pre-treatment of target fibroblasts"}}}
{"compound": "CC(C)Oc1ccc2c(=O)c3cc(C(=O)O)ccc3oc2c1", "note": "[AH6809]", "values": [{"measurement": "PGE2-induced SA β-gal and p21 expression", "setting": "Primary lung fibroblasts; [3]", "result": "small but significant higher effect"}, {"measurement": "PGE2-induced SA β-gal and p21 expression", "setting": "Primary lung fibroblasts; [4]", "result": "significantly reduced"}, {"measurement": "PGE2-induced SA-β gal and p21 expression", "setting": "Primary lung fibroblasts; PGE2 10 ng·ml−1", "result": "only the simultaneous application of both antagonists decreased"}, {"measurement": "increase in IL-6, CX3CL1, FGF2, VEGF, MMP2 and TIMP2 induced by PGE2", "setting": "Primary lung fibroblasts", "result": "both antagonists were needed to suppress"}]}
{"compound": "O=C1CC[C@H](/C=C/[C@@H](O)Cc2ccccc2)N1CCCCCCc1nn[nH]n1", "note": "[CAY10598]", "values": [{"measurement": "SA β-gal and p21 expression (agonists, no PGE2)", "setting": "Primary lung fibroblasts; COPD and control fibroblasts, both agonists (EP2 + EP4) used simultaneously, versus one agonist", "result": "small but significant higher effect"}, {"measurement": "SA β-gal and p21 expression (agonist alone, no PGE2)", "setting": "Primary lung fibroblasts; COPD and control fibroblasts, one agonist", "result": "mimicked PGE2 effects"}]}
{"compound": "CCOc1c2c(c(OCC)c3ccccc13)C(=O)N(c1ccc(CC(=O)NS(=O)(=O)c3ccccc3)cc1)C2", "note": "[GW627368X]", "values": [{"measurement": "PGE2-induced SA β-gal and p21 expression", "setting": "Primary lung fibroblasts; [3]", "result": "small but significant higher effect"}, {"measurement": "PGE2-induced SA β-gal and p21 expression", "setting": "Primary lung fibroblasts; [4]", "result": "significantly reduced"}, {"measurement": "PGE2-induced SA-β gal and p21 expression", "setting": "Primary lung fibroblasts; PGE2 10 ng·ml−1", "result": "only the simultaneous application of both antagonists decreased"}, {"measurement": "increase in IL-6, CX3CL1, FGF2, VEGF, MMP2 and TIMP2 induced by PGE2", "setting": "Primary lung fibroblasts", "result": "both antagonists were needed to suppress"}]}
{"compound": "CC(=O)N[C@@H](CS)C(=O)O", "note": "[N-acetyl-cysteine]", "values": [{"measurement": "increase in ROS, and SA β-gal and p21 expression induced by PGE2", "setting": "fibroblasts", "result": "significantly reduced"}]}
{"compound": "CCCCC[C@H](O)/C=C/[C@H]1[C@H](O)CC(=O)[C@@H]1C/C=C\\CCCC(=O)O", "note": "[PGE2, prostaglandin E2]", "values": [{"measurement": "cleaved caspase-3 (and phosphatidyl serine residues)", "setting": "Primary lung fibroblasts; fibroblasts of the three groups of patients after PGE2", "result": "absence"}, {"measurement": "percentage of cells expressing SA β-gal, p21 and p16 protein", "setting": "Primary lung fibroblasts; non-senescent NS-C, S-C and COPD fibroblasts, 24 h incubation with PGE2 (0.5 to 50 ng ml−1), higher in COPD", "result": "dose-response increase"}, {"measurement": "levels of IL-6, CX3CL1, VEGF, FGF2, MMP-2 and TIMP-2 in cell culture supernatant", "setting": "Primary lung fibroblasts; non-senescent fibroblasts, 24 h incubation with PGE2, higher in COPD", "result": "increase"}, {"measurement": "COX2 mRNA levels", "setting": "[1]; mice, at 48 h", "result": "increased"}, {"measurement": "induction of p21 and inflammatory mediators", "setting": "[1]; p53−/− mice", "result": "not observed"}, {"measurement": "p16 expression in lung", "setting": "[1]; [5]", "result": "no change"}, {"measurement": "pulmonary expression of inflammatory mediators (IL-6, CX3CL1, FGF2, VEGF, MMP2)", "setting": "[1]; [5]", "result": "induced"}, {"measurement": "pulmonary expression of p53 and p21", "setting": "[1]; wild type mice, single intra-tracheal instillation, at 24 h and 48 h respectively", "result": "induced"}, {"measurement": "activation of the DNA damage-activated transcription factor ATM", "setting": "fibroblasts; PGE2-exposed COPD cells, single exposure", "result": "No activation"}, {"measurement": "concentration of intracellular ROS and expression of the oxidant-sensitive protein HO-1", "setting": "fibroblasts; fibroblasts incubated with PGE2", "result": "increased in a dose-dependent manner only in fibroblasts from COPD patients"}, {"measurement": "synthesis of endogenous PGE2", "setting": "PGE2; fibroblasts exposed to exogenous PGE2", "result": "induced"}, {"measurement": "expression of phosphorylated-ATM", "setting": "S-C and COPD fibroblasts; COPD fibroblasts, repeated exposure to PGE2", "result": "enhanced"}, {"measurement": "expression of MCP3", "setting": "S-C and COPD fibroblasts; [6]", "result": "not modified"}, {"measurement": "reduction in telomeres length", "setting": "S-C and COPD fibroblasts; [6]", "result": "did not modify"}, {"measurement": "induction of SA-β gal, p21, p16, COX2 and HO-1 expression, and levels of IL-6, IL-8, GRO, VEGF and CX3CL", "setting": "S-C and COPD fibroblasts; [7]", "result": "enhanced"}, {"measurement": "senescence-associated cumulative PDL", "setting": "S-C and COPD fibroblasts; [7]", "result": "further reduced"}, {"measurement": "concentration from which the effect of PGE2 (aggravated replicative senescence) was observed", "setting": "human dermal fibroblasts", "result": "≥ 5", "unit": "µM"}]}
{"compound": "Cc1ccc(-c2cc(C(F)(F)F)nn2-c2ccc(S(N)(=O)=O)cc2)cc1", "note": "[celecoxib]", "values": [{"measurement": "reduction of the levels of PGE2 in CM", "setting": "PGE2", "result": 60, "unit": "%"}]}
{"compound": "COc1ccc2c(c1)c(CC(=O)O)c(C)n2C(=O)c1ccc(Cl)cc1", "note": "[indomethacin]", "values": [{"measurement": "increase in ROS, and SA β-gal and p21 expression induced by PGE2", "setting": "fibroblasts", "result": "significantly reduced"}, {"measurement": "reduction of the levels of PGE2 in CM", "setting": "PGE2", "result": 60, "unit": "%"}, {"measurement": "percentage of SA β-gal positive cells and p21 protein expression", "setting": "[2]; target cells incubated with CM from fibroblasts treated with COX inhibitor", "result": "parallel significant reduction"}]}
{"compound": "Cc1ccc(C(=O)Cn2c3c(sc2=N)CCCC3)cc1", "note": "[pifithrin-α]", "values": [{"measurement": "PGE2-induced SA β-gal and p21 expression", "setting": "Primary lung fibroblasts; COPD and control fibroblasts", "result": "completely prevented"}, {"measurement": "increase in IL6, CX3CL1, MMP-2 and TIMP-2 levels induced by PGE2", "setting": "Primary lung fibroblasts; control and COPD fibroblasts", "result": "completely prevented"}, {"measurement": "increase in p16 induced by PGE2", "setting": "Primary lung fibroblasts; control and COPD fibroblasts", "result": "without modification"}, {"measurement": "increase in FGF-2 mRNA expression induced by CM", "setting": "[2]; [8]", "result": "not modified"}, {"measurement": "increase in IL-6, IL-8 and MCP-1 mRNA expression induced by CM", "setting": "[2]; [8]", "result": "suppressed"}, {"measurement": "increase in SA β-gal positive cells and induction of p21 protein by S-C and COPD senescent CM", "setting": "[2]; [8]", "result": "suppressed"}]}
